The text below walks through data of patent US20250171430A1, “PYRAZOLYL COMPOUNDS AS KV7 CHANNEL ACTIVATORS” (Biohaven Therapeutics Ltd., priority 2022, published 2025).

This assay addresses T1, Kv7.2/7.3 (Homo sapiens, UniProt O43525+O43526).
T1 construct: Kv7.2 tetracycline-induced, Kv7.3 constitutive
In words: Kv7.2/7.3 Activation Assay (Thallium Flux Assay). Conditions: hKV7.2/7.3 cell line; test compound at single concentration of 10 μM; fluorescence at 90 sec normalized to positive control (retigabine, 30 μM). Format: cell-based. The gist of the method: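 Human Kv7.2/7.3 cells with Kv7.2 induced overnight by 10 ng/mL tetracycline were loaded with FluxOR II Green for 1 h at 37 °C. Compounds were tested at 10 μM in 0.1% DMSO/extracellular solution, pH 7.4. Thallium/potassium stimulus was added after a 15 s baseline, and 90 s fluorescence (ex 475/em 530 nm) was normalized to 30 μM retigabine.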
As to `Cn1nc(NC(=O)C2CC(F)(F)C2)c(C2CCC2)c1-c1ccc(F)c(F)c1` [Compound 192, N-(4-cyclobutyl-5-(3,4-difluorophenyl)-1-methyl-1H-pyrazol-3-yl)-3,3-difluorocyclobutane-1-carboxamide], the “Kv7.2/7.3 Activity” value is “++ (“++” High Activity ≥ 0.7)”.
The result for `CC(C)C1(C(=O)Nc2nn(C)c(-c3ccc(F)cc3)c2C2CCC2)CC1` [Compound 136, N-(4-cyclobutyl-5-(4-fluorophenyl)-1-methyl-1H-pyrazol-3-yl)-1-isopropylcyclopropane-1-carboxamide] reads “++ (“++” High Activity ≥ 0.7)”; that for `Cn1nc(NC(=O)C2CC(F)(F)C2)c(C2CCC2)c1-c1ccc(F)cc1` [Compound 125, N-(4-cyclobutyl-5-(4-fluorophenyl)-1-methyl-1H-pyrazol-3-yl)-3,3-difluorocyclobutane-1-carboxamide], “++ (“++” High Activity ≥ 0.7)”.
With `Cn1nc(NC(=O)C[C@H]2CC(F)(F)C2(F)F)c(C2CCC2)c1-c1ccc(S(C)(=O)=O)cc1` [Compound 54, (S)-N-(4-cyclobutyl-1-methyl-5-(4-(methylsulfonyl)phenyl)-1H-pyrazol-3-yl)-2-(2,2,3,3-tetrafluorocyclobutyl)acetamide] the entry was “− (“−” No Activity < 0.15)”.
With `Cn1nc(NC(=O)COC(C)(C)C)c(C2CCC2)c1-c1ccc(F)cc1` [Compound 108, 2-(tert-butoxy)-N-(4-cyclobutyl-5-(4-fluorophenyl)-1-methyl-1H-pyrazol-3-yl)acetamide] the entry was “+ (“+” Moderate Activity 0.15-0.7)”; with `Cn1nc(NC(=O)NC(C)(C)C)c(C2CCC2)c1-c1ccc(F)cc1` [Compound 245, 1-(tert-butyl)-3-(4-cyclobutyl-5-(4-fluorophenyl)-1-methyl-1H-pyrazol-3-yl)urea], “+ (“+” Moderate Activity 0.15-0.7)”.
With `Cn1nc(NC(=O)CC2(C(F)(F)F)CC2)c(C2CCC2)c1-c1ccc(C(F)(F)F)cn1` [Compound 36, N-(4-cyclobutyl-1-methyl-5-(5-(trifluoromethyl)pyridin-2-yl)-1H-pyrazol-3-yl)-2-(1-(trifluoromethyl)cyclopropyl)acetamide], the “Kv7.2/7.3 Activity” value is on record as “− (“−” No Activity < 0.15)”.
With `Cn1nc(NC(=O)C[C@@H]2CC(F)(F)C2(F)F)c(C2CCC2)c1-c1ccc(F)c(F)c1` [Compound 235, (R)-N-(4-cyclobutyl-5-(3,4-difluorophenyl)-1-methyl-1H-pyrazol-3-yl)-2-(2,2,3,3-tetrafluorocyclobutyl)acetamide] the entry was “++ (“++” High Activity ≥ 0.7)”; with `Cn1nc(NC(=O)CC2(C(F)(F)F)CC2)c(C2CCC2)c1Cc1ccccc1` [Compound 17, N-(5-benzyl-4-cyclobutyl-1-methyl-1H-pyrazol-3-yl)-2-(1-(trifluoromethyl)cyclopropyl)acetamide], “++ (“++” High Activity ≥ 0.7)”; with `C[C@H](C(=O)Nc1nn(C)c(-c2ccc(F)cc2)c1C1CCC1)C1(C(F)(F)F)CC1` [Compound 127, (S)-N-(4-cyclobutyl-5-(4-fluorophenyl)-1-methyl-1H-pyrazol-3-yl)-2-(1-(trifluoromethyl)cyclopropyl)propanamide], “++ (“++” High Activity ≥ 0.7)”.
With `Cn1nc(NC(=O)C[C@@H]2CC(F)(F)C2(F)F)c(C2CCC2)c1-c1cccc(C(C)(C)O)c1` [Compound 47, (R)-N-(4-cyclobutyl-5-(3-(2-hydroxypropan-2-yl)phenyl)-1-methyl-1H-pyrazol-3-yl)-2-(2,2,3,3-tetrafluorocyclobutyl)acetamide] the entry was “+ (“+” Moderate Activity 0.15-0.7)”; with `Cn1nc(NC(=O)c2ccccc2)c(C2CCC2)c1-c1ccc(OC(F)(F)F)cc1` [Compound 198, N-(4-cyclobutyl-1-methyl-5-(4-(trifluoromethoxy)phenyl)-1H-pyrazol-3-yl)benzamide], “+ (“+” Moderate Activity 0.15-0.7)”; with `Cn1nc(NC(=O)NCC(C)(C)C)c(C2CCC2)c1-c1ccc(F)cc1` [Compound 251, 1-(4-cyclobutyl-5-(4-fluorophenyl)-1-methyl-1H-pyrazol-3-yl)-3-neopentylurea], “+ (“+” Moderate Activity 0.15-0.7)”.
The result for `Cn1nc(NC(=O)[C@@H]2CC2(F)F)c(C2CCC2)c1-c1ccc(OC(F)(F)F)cc1` [Compound 174, (S)-N-(4-cyclobutyl-1-methyl-5-(4-(trifluoromethoxy)phenyl)-1H-pyrazol-3-yl)-2,2-difluorocyclopropane-1-carboxamide] reads “+ (“+” Moderate Activity 0.15-0.7)”; that for `Cn1nc(NC(=O)NC2CC(F)(F)C2)c(C2CCC2)c1-c1ccc(C(F)(F)F)cc1` [Compound 277, 1-(4-cyclobutyl-1-methyl-5-(4-(trifluoromethyl)phenyl)-1H-pyrazol-3-yl)-3-(3,3-difluorocyclobutyl)urea], “+ (“+” Moderate Activity 0.15-0.7)”.
For `Cn1nc(NC(=O)CC2(C(F)(F)F)CC2)c(C2CCC2)c1-c1ccc(F)cc1F` [Compound 107, N-(4-cyclobutyl-5-(2,4-difluorophenyl)-1-methyl-1H-pyrazol-3-yl)-2-(1-(trifluoromethyl)cyclopropyl)acetamide], the “Kv7.2/7.3 Activity” value is reported as “++ (“++” High Activity ≥ 0.7)”.
Regarding `Cn1nc(NC(=O)CC2(O)CCCC2)c(C2CCC2)c1-c1ccc(F)cc1` [Compound 73, N-(4-cyclobutyl-5-(4-fluorophenyl)-1-methyl-1H-pyrazol-3-yl)-2-(1-hydroxycyclopentyl)acetamide], the “Kv7.2/7.3 Activity” value is “++ (“++” High Activity ≥ 0.7)”.
The result for `Cn1nc(NC(=O)C2CC3(C2)CC(F)(F)C3)c(C2CCC2)c1-c1ccc(Cl)s1` [Compound 249, N-(5-(5-chlorothiophen-2-yl)-4-cyclobutyl-1-methyl-1H-pyrazol-3-yl)-6,6-difluorospiro[3.3]heptane-2-carboxamide] reads “++ (“++” High Activity ≥ 0.7)”.
`Cn1nc(NC(=O)[C@H]2CC2(F)F)c(C2CCC2)c1-c1ccc(Cl)s1` [Compound 154, (R)-N-(5-(5-chlorothiophen-2-yl)-4-cyclobutyl-1-methyl-1H-pyrazol-3-yl)-2,2-difluorocyclopropane-1-carboxamide]: the “Kv7.2/7.3 Activity” value is listed as “+ (“+” Moderate Activity 0.15-0.7)”.
The result for `Cn1nc(NC(=O)CC2CC(F)(F)C2)c(C2CCC2)c1-c1ccc(OC(F)(F)F)cc1` [Compound 72, N-(4-cyclobutyl-1-methyl-5-(4-(trifluoromethoxy)phenyl)-1H-pyrazol-3-yl)-2-(3,3-difluorocyclobutyl)acetamide] reads “++ (“++” High Activity ≥ 0.7)”; that for `Cn1nc(NC(=O)C[C@H]2CC(F)(F)C2(F)F)c(C2CCC2)c1-c1cc(F)cc(F)c1` [Compound 266, (S)-N-(4-cyclobutyl-5-(3,5-difluorophenyl)-1-methyl-1H-pyrazol-3-yl)-2-(2,2,3,3-tetrafluorocyclobutyl)acetamide], “++ (“++” High Activity ≥ 0.7)”.
With `C[C@@H](C(=O)Nc1nn(C)c(-c2cc(F)cc(F)c2)c1C1CCC1)C1CC(F)(F)C1` [Compound 267, (R)-N-(4-cyclobutyl-5-(3,5-difluorophenyl)-1-methyl-1H-pyrazol-3-yl)-2-(3,3-difluorocyclobutyl)propanamide] the entry was “++ (“++” High Activity ≥ 0.7)”.
Take `Cn1nc(NC(=O)NC2CC(F)(F)C2)c(C2CCC2)c1-c1ccc(Cl)s1` [Compound 211, 1-(5-(5-chlorothiophen-2-yl)-4-cyclobutyl-1-methyl-1H-pyrazol-3-yl)-3-(3,3-difluorocyclobutyl)urea]: the “Kv7.2/7.3 Activity” value is “++ (“++” High Activity ≥ 0.7)”.
For `CO[C@@H](CC(=O)Nc1nn(C)c(-c2ccc(F)c(F)c2)c1C1CCC1)C(F)(F)F` [Compound 215, (S)-N-(4-cyclobutyl-5-(3,4-difluorophenyl)-1-methyl-1H-pyrazol-3-yl)-4,4,4-trifluoro-3-methoxybutanamide], the “Kv7.2/7.3 Activity” value was “++ (“++” High Activity ≥ 0.7)”.
With `Cn1nc(NC(=O)[C@H]2CC2(F)F)c(C2CCC2)c1-c1cnc(C(F)(F)F)s1` [Compound 298, (R)-N-(4-cyclobutyl-1-methyl-5-(2-(trifluoromethyl)thiazol-5-yl)-1H-pyrazol-3-yl)-2,2-difluorocyclopropane-1-carboxamide] the entry was “− (“−” No Activity < 0.15)”; with `Cn1nc(NC(=O)CC2CC(F)(F)C2)c(C2CCC2)c1-c1cc(F)c(F)c(F)c1` [Compound 264, N-(4-cyclobutyl-1-methyl-5-(3,4,5-trifluorophenyl)-1H-pyrazol-3-yl)-2-(3,3-difluorocyclobutyl)acetamide], “++ (“++” High Activity ≥ 0.7)”; with `Cn1nc(NC(=O)NCC(C)(C)C)c(C2CCC2)c1C1CC(F)(F)C1` [Compound 294, 1-(4-cyclobutyl-5-(3,3-difluorocyclobutyl)-1-methyl-1H-pyrazol-3-yl)-3-neopentylurea], “++ (“++” High Activity ≥ 0.7)”.
The result for `Cn1nc(NC(=O)[C@H]2C[C@@]2(C)C(F)F)c(C2CCC2)c1-c1ccc(F)cc1` [Compound 112, (1S,2R)-N-(4-cyclobutyl-5-(4-fluorophenyl)-1-methyl-1H-pyrazol-3-yl)-2-(difluoromethyl)-2-methylcyclopropane-1-carboxamide] reads “++ (“++” High Activity ≥ 0.7)”.
With `Cn1nc(NC(=O)OC2CC(F)(F)C2)c(C2CCC2)c1-c1ccc(F)cc1` [Compound 241, 3,3-difluorocyclobutyl (4-cyclobutyl-5-(4-fluorophenyl)-1-methyl-1H-pyrazol-3-yl)carbamate] the entry was “++ (“++” High Activity ≥ 0.7)”.
For the molecule `Cn1nc(NC(=O)CC2(O)CCCC2)c(C2CCC2)c1-c1ccc(OC(F)(F)F)cc1` [Compound 71, N-(4-cyclobutyl-1-methyl-5-(4-(trifluoromethoxy)phenyl)-1H-pyrazol-3-yl)-2-(1-hydroxycyclopentyl)acetamide], the “Kv7.2/7.3 Activity” value is listed as “++ (“++” High Activity ≥ 0.7)”.
